From patent US20100029696A1, “INDOLYLAMINO QUINAZOLINE DERIVATIVES AS ANTITUMOR AGENTS” (priority 2005, published 2010)

Legend:
[1] = target: T1, erbB2 tyrosine kinase (Homo sapiens, UniProt P04626); test: Protein tyrosine kinase phosphorylation assay, Test (a), erbB2; type: biochemical; conditions: ATP at Km concentration; read-out: IC50 Test (a): Inhibition of erbB2 tyrosine kinase protein phosphorylation
T1 construct: Recombinant intracellular fragments of EGFR, erbB2 and erbB4; made in house; host or cells: baculovirus/Sf21 insect cells
Protocol: (§1) This test measures the ability of a test compound to inhibit the phosphorylation of a tyrosine containing polypeptide substrate by EGFR, erbB2 and erbB4 tyrosine kinase enzyme.
(§2) Recombinant intracellular fragments of EGFR, erbB2 and erbB4 (accession numbers X00588, X03363 and L07868 respectively) were cloned and expressed in the baculovirus/Sf21 system. […]
(§3) Constitutive kinase activity of these recombinant proteins was determined by their ability to phosphorylate a synthetic peptide (made up of a random co-polymer of Glutamic Acid, Alanine and Tyrosine in the ratio of 6:3:1). […]
(§4) The immobilised phospho-peptide product of the reaction was detected by immunological methods. […] After further washing, HRP activity in each well of the plate was measured colorimetrically using 22′-Azino-di-[3-ethylbenzthiazoline sulfonate (6)]diammonium salt crystals (ABTS™ from Roche) as a substrate.
(§5) Quantification of colour development and thus enzyme activity was achieved by the measurement of absorbance at 405 nm on a Molecular Devices ThermoMax microplate reader. Kinase inhibition for a given compound was expressed as an IC50 value. […] The range of phosphorylation was calculated from the positive (vehicle plus ATP) and negative (vehicle minus ATP) control values.

[2] = target: T2, EGFR tyrosine kinase (Homo sapiens, UniProt P00533); test: Protein tyrosine kinase phosphorylation assay, Test (a), EGFR; type: biochemical; conditions: ATP at Km concentration; read-out: IC50 Test (a): Inhibition of EGFR tyrosine kinase protein phosphorylation
T2 construct: Recombinant intracellular fragments of EGFR, erbB2 and erbB4; made in house; host or cells: baculovirus/Sf21 insect cells
Protocol: as §1, §2, §3, §4, §5

[3] = target: T3, erbB2 in MCF7 derived cell line (Clone 24 cells) (Homo sapiens, UniProt P04626); test: Clone 24 phospho-erbB2 cell assay, Test (c); type: cell-based; conditions: MCF7 derived Clone 24 cells, 4 hours; read-out: IC50 Test (c): Inhibition of erbB2 tyrosine kinase protein phosphorylation
T3 construct: a cell line that overexpresses full length wild type erbB2 protein; expressed in transfected cells; host or cells: MCF7 (breast carcinoma) cells, 'Clone 24'
Protocol: This immunofluorescence end point assay measures the ability of a test compound to inhibit the phosphorylation of erbB2 in a MCF7 (breast carcinoma) derived cell line which was generated by transfecting MCF7 cells with the full length erbB2 gene using standard methods to give a cell line that overexpresses full length wild type erbB2 protein (hereinafter ‘Clone 24’ cells).
Clone 24 cells were cultured in Growth Medium (phenol red free Dulbecco's modified Eagle's medium (DMEM) containing 10% foetal bovine serum, 2 mM glutamine and 1.2 mg/ml G418) in a 7.5% CO2 air incubator at 37° C. […] Cell density was measured using a haemocytometer and viability was calculated using Trypan Blue solution before being further diluted in Growth Medium and seeded at a density of 1×10^4 cells per well (in 100 μl) into clear bottomed 96 well plates (Packard, No. 6005182). […]
Immunostaining was performed at room temperature. […] Plates were analysed within six hours of completing the immunostaining.
The Fluorescence signal is each well was measured using an Acumen Explorer Instrument (Acumen Bioscience Ltd.), a plate reader that can be used to rapidly quantitate features of images generated by laser-scanning. […]

T2 sequence (P00533 669-1210 limits assumed): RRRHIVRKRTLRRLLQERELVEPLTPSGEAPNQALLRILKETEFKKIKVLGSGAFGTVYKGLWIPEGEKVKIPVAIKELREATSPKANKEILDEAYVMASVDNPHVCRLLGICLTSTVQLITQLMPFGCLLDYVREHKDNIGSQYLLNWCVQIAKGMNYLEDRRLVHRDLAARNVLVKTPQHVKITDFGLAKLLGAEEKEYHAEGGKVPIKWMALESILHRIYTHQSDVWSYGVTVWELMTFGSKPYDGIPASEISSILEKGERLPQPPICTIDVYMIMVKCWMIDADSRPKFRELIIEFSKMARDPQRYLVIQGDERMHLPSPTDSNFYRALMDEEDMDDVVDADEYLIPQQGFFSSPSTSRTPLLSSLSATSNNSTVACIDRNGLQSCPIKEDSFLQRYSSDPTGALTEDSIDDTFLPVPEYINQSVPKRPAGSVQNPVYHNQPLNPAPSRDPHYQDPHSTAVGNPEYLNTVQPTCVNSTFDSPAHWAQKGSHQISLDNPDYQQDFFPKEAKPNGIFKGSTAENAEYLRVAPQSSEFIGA
T1 sequence (P04626 676-1255 limits assumed): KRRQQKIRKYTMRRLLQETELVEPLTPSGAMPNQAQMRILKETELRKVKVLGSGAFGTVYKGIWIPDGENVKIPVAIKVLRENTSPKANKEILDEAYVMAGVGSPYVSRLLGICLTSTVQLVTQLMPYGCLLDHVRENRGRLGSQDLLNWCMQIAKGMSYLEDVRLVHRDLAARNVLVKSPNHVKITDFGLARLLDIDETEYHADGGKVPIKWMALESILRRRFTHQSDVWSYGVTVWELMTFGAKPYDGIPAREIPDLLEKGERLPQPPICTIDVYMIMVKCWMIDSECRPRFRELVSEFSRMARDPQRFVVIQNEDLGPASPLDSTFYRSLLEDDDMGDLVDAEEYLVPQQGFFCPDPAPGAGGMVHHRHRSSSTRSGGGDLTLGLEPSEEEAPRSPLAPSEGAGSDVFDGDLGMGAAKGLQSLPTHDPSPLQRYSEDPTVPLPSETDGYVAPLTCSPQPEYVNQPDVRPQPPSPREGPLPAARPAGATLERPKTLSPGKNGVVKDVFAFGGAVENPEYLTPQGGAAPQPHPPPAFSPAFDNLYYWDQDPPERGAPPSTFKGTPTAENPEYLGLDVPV
T3 sequence (P04626 23-1255): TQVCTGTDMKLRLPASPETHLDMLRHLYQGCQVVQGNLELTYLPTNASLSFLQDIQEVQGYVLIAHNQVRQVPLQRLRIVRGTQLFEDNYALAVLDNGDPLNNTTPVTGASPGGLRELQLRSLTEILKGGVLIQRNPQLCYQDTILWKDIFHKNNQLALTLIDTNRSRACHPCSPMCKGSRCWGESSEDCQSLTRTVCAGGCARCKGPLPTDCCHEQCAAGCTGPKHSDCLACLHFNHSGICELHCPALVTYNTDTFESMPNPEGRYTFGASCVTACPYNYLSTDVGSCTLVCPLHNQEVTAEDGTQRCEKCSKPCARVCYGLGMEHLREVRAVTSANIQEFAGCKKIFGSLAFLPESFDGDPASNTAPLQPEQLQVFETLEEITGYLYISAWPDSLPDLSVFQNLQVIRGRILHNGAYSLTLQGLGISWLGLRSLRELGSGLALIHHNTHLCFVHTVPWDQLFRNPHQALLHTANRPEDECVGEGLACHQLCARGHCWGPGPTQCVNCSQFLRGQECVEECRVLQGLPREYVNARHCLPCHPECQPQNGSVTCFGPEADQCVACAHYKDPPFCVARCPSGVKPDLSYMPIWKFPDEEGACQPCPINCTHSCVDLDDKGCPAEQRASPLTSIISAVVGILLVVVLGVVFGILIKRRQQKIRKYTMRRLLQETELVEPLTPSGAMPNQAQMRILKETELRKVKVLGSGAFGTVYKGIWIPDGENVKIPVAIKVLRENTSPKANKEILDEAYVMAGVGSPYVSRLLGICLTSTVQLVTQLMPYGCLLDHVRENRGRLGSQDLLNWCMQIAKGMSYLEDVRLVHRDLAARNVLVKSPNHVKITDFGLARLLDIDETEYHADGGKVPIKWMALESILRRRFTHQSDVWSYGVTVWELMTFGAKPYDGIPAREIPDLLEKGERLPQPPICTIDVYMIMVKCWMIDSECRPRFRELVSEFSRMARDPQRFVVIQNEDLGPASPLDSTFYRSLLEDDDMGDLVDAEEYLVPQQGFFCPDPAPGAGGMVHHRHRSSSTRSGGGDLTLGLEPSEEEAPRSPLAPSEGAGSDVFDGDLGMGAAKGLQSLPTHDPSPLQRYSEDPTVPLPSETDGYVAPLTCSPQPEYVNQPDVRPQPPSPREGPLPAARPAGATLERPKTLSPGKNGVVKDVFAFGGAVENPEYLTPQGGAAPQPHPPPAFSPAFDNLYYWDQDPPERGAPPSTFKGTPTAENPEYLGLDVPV

| SMILES | IC50 [1] | IC50 [2] | IC50 [3] |
| --- | --- | --- | --- |
| O=C(CO)N1CCCC[C@@H]1COc1cccc2ncnc(Nc3ccc4c(ccn4Cc4ccccn4)c3)c12 [Example 1, 2-Oxo-2-((2R)-2-{[(4-{[1-(pyridin-2-ylmethyl)-1H-indol-5-yl]amino}quinazolin-5-yl)oxy]methyl}piperidin-1-yl)ethanol] | 1 nM | 1 nM | – |
| O=C(CO)N1CCCC[C@@H]1COc1cccc2ncnc(Nc3ccc4c(ccn4Cc4cscn4)c3)c12 [Example 2, 2-Oxo-2-((2R)-2-{[(4-{[1-(1,3-thiazol-4-ylmethyl)-1H-indol-5-yl]amino}quinazolin-5-yl)oxy]methyl}piperidin-1-yl)ethanol] | 38 nM | 1 nM | 35 nM |
